These substances were tested on PP2A (assay: colorimetric protein phosphatase (PP2A) inhibition assay).
Type: biochemical
Experimental: The biological toxicity of the typical MCs was evaluated by a colorimetric protein phosphatase inhibition assay modified by Zong et al.. First, PP2A was diluted to 5 U/mL with a buffer solution (50 mM Tris-HCl pH 7.4, 2.0 mM dithiothreitol, 1 mM MnCl2) and 1.0 g/L bovine serum albumin. Then, 10 μL of PP2A and 100 μL of test samples were mixed in a 96-well polystyrene microplate. With gentle shaking, the microtiter plates were kept at 25.0 °C for 15 min, and 90 μL p-nitrophenyl disodium orthophosphate (5 mM) was added. After 1 h, the absorbances at 405 nm were measured in a microplate reader. The inhibition of the test samples on PP2A was calculated by the formula of IPP2A (%) = (Acontrol − Asample)/Acontrol × 100%. Acontrol and Asample were the absorbance of the reference sample ([…]) and the test sample at 405 nm, respectively.
In the case of MCLR, the “inhibition effect on PP2A” value was “much higher inhibition effect than other MCs” and the “inhibition sequence on PP2A” value was “MCLR > MCLW > MCLA > MCLF > MCLY”.
In the case of MCLA, the “inhibition sequence on PP2A” value was “MCLR > MCLW > MCLA > MCLF > MCLY”.
For MCLY, the “inhibition effect on PP2A” value was “lower inhibition” and the “inhibition sequence on PP2A” value was “MCLR > MCLW > MCLA > MCLF > MCLY”.
For MCLF, the “inhibition sequence on PP2A” value was “MCLR > MCLW > MCLA > MCLF > MCLY”.

— publication PMC9227578, “Insight into the Molecular Mechanism for the Discrepant Inhibition of Microcystins (MCLR, LA, LF, LW, LY) on Protein Phosphatase 2A” (Toxins, 2022)
